Assay results taken from patent publication US6617336B1, “2-arylquinoline derivatives, preparation and therapeutic use thereof” (Sanofi-Synthelabo, priority 1999, dated 2003).

Molecule Cc1cc2cccc([C@H](CO)N3CCCC[C@H]3C)c2nc1-c1ccccc1.Cl has a melting point of 68 °C.
